# Molecular target: PI3Kδ (Homo sapiens (Human), UniProt O00329)
# Assay: PI3K Enzyme Assay (Example A2), [γ-33P]ATP filter plate
# Format: biochemical
# How it was run: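 Recombinant PI3Kδ at 2.9 nM with 50 µM PIP2 in MOPS pH 6.7, MgCl2, DTT, CHAPS, 0.5% DMSO; started with 1000 μM ATP including [γ-33P]ATP, 180 min at room temperature. Phosphorylated product captured on PVDF filter plates and scintillation-counted; IC50 from percent-control activity vs log concentration.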
# PI3Kδ, sequence (O00329 whole entry): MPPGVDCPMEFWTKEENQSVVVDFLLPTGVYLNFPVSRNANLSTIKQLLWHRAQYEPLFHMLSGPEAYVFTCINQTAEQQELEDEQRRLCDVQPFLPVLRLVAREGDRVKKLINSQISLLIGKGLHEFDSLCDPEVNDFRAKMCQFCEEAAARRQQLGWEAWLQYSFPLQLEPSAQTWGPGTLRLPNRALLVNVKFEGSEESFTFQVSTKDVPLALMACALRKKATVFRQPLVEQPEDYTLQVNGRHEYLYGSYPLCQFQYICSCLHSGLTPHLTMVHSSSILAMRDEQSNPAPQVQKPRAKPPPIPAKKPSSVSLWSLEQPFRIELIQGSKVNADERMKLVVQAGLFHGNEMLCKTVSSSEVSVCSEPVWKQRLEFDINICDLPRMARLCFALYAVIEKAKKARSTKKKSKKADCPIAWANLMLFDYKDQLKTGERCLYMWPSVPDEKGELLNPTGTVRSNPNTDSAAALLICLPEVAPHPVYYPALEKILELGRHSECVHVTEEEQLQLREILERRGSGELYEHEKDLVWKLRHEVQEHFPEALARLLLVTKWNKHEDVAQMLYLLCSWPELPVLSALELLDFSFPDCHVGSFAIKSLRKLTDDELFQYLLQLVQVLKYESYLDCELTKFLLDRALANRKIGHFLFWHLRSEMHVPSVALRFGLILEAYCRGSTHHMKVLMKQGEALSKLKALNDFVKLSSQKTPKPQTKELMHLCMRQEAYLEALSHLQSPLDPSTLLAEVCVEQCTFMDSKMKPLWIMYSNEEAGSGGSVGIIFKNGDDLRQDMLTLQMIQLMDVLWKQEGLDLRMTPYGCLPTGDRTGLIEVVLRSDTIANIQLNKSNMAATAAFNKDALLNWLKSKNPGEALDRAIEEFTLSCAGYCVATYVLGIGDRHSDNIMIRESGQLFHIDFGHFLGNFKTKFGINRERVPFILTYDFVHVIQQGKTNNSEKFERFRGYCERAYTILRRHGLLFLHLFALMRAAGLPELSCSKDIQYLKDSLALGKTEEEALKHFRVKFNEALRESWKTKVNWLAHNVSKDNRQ
# PI3Kδ, sequence (P27986 whole entry partner): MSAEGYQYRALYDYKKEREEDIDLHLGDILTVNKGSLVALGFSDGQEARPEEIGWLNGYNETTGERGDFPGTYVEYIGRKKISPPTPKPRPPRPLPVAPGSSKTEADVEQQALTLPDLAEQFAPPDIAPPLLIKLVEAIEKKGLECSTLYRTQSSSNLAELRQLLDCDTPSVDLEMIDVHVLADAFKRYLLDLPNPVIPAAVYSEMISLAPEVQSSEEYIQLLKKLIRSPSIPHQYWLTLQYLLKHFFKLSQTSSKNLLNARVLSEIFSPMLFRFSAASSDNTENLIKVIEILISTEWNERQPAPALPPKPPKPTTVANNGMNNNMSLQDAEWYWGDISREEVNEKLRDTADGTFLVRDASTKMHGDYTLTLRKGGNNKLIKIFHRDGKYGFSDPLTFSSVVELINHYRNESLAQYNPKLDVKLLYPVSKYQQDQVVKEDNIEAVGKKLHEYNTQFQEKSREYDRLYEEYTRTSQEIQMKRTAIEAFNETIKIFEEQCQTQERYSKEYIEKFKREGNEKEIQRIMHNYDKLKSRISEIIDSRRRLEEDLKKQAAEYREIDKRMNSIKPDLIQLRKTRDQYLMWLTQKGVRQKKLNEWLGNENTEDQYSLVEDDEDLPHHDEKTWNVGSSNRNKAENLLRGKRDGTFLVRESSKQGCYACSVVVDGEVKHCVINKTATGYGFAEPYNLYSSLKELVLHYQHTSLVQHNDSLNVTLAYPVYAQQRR
row,IC50 [nM],Structure (SMILES)
1,≤ 100,"Cc1nn(C(C)c2cc(Cl)c(C#N)c3c2OCCN(C2CN(CCO)C2)C3)c2ncnc(N)c12 (stereo not shown) [Example 47, 9-[1-(4-amino-3-methyl-1H-pyrazolo[3,4-d]pyrimidin-1-yl)ethyl]-7-chloro-4-[1-(2-hydroxyethyl)azetidin-3-yl]-2,3,4,5-tetrahydro-1,4-benzoxazepine-6-carbonitrile]"
2,≤ 100,"Cc1nn(C(C)c2cc(Cl)c(C#N)c3c2O[C@@H](C)CN(C2CN(CCO)C2)C3)c2ncnc(N)c12 (stereo partly drawn) [Example 56, (2S)-9-[1-(4-Amino-3-methyl-1H-pyrazolo[3,4-d]pyrimidin-1-yl)ethyl]-7-chloro-4-[1-(2-hydroxyethyl)azetidin-3-yl]-2-methyl-2,3,4,5-tetrahydro-1,4-benzoxazepine-6-carbonitrile]"
3,≤ 100,"Cc1nn(C(C)c2cc(Cl)c(C#N)c3c2OCCN(CCO)C3)c2ncnc(N)c12 (stereo not shown) [Example 58, 9-[1-(4-Amino-3-methyl-1H-pyrazolo[3,4-d]pyrimidin-1-yl)ethyl]-7-chloro-4-(2-hydroxyethyl)-2,3,4,5-tetrahydro-1,4-benzoxazepine-6-carbonitrile]"
4,≤ 100,"Cc1nn(C(C)c2cc(Cl)c(F)c3c2OCCN(C2CN(C(=O)N(C)C)C2)C3)c2ncnc(N)c12 (stereo not shown) [Example 73, 3-[9-[1-(4-amino-3-methyl-1H-pyrazolo[3,4-d]pyrimidin-1-yl)ethyl]-7-chloro-6-fluoro-2,3-dihydro-1,4-benzoxazepin-4(5H)-yl]-N,N-dimethylazetidine-1-carboxamide]"
5,≤ 100,"Cc1nn(C(C)c2cc(Cl)c(F)c3c2OCCN(C2CN(S(=O)(=O)N(C)C)C2)C3)c2ncnc(N)c12 (stereo not shown) [Example 74, 3-[9-[1-(4-amino-3-methyl-1H-pyrazolo[3,4-d]pyrimidin-1-yl)ethyl]-7-chloro-6-fluoro-2,3-dihydro-1,4-benzoxazepin-4(5H)-yl]-N,N-dimethylazetidine-1-sulfonamide]"
6,≤ 100,"Cc1nn(C(C)c2cc(Cl)c(F)c3c2OC(C)CN(C2CN(S(C)(=O)=O)C2)C3)c2ncnc(N)c12 (stereo not shown) [Example 75, 1-(1-{7-chloro-6-fluoro-2-methyl-4-[1-(methylsulfonyl)azetidin-3-yl]-2,3,4,5-tetrahydro-1,4-benzoxazepin-9-yl}ethyl)-3-methyl-1H-pyrazolo[3,4-d]pyrimidin-4-amine]"
7,≤ 100,"CCC(=O)N1CC(N2Cc3c(F)c(Cl)cc(C(C)n4nc(C)c5c(N)ncnc54)c3OC(C)C2)C1 (stereo not shown) [Example 76, 1-{1-[7-chloro-6-fluoro-2-methyl-4-(1-propionylazetidin-3-yl)-2,3,4,5-tetrahydro-1,4-benzoxazepin-9-yl]ethyl}-3-methyl-1H-pyrazolo[3,4-d]pyrimidin-4-amine]"
8,≤ 100,"Cc1nn([C@@H](C)c2cc(Cl)c(F)c3c2O[C@@H](C)CN(C2CN(C[C@H](C)O)C2)C3)c2ncnc(N)c12 [Example 85, (2S)-1-{3-[(2S)-9-[(1S)-1-(4-amino-3-methyl-1H-pyrazolo[3,4-d]pyrimidin-l-yl)ethyl]-7-chloro-6-fluoro-2-methyl-2,3-dihydro-1,4-benzoxazepin-4(5H)-yl]azetidin-1-yl}propan-2-ol]"
9,≤ 100,"Cc1nn([C@@H](C)c2cc(Cl)c(F)c3c2O[C@@H](C)CN(C2CN(C[C@@H](C)O)C2)C3)c2ncnc(N)c12 [Example 86, (2R)-1-{3-[(2S)-9-[(1S)-1-(4-amino-3-methyl-1H-pyrazolo[3,4-d]pyrimidin-1-yl)ethyl]-7-chloro-6-fluoro-2-methyl-2,3-dihydro-1,4-benzoxazepin-4(5H)-yl]azetidin-1-yl}propan-2-ol]"
10,≤ 100,"CCC(=O)N1CC(N2CCOc3c(C(C)n4nc(C)c5c(N)ncnc54)cc(Cl)c(C#N)c3C2)C1 (stereo not shown) [Example 89, 9-[1-(4-amino-3-methyl-1H-pyrazolo[3,4-d]pyrimidin-1-yl)ethyl]-7-chloro-4-(1-propionylazetidin-3-yl)-2,3,4,5-tetrahydro-1,4-benzoxazepine-6-carbonitrile]"
11,≤ 100,"Cc1nn(C(C)c2cc(Cl)c(C#N)c3c2OCCN(C2CN(S(C)(=O)=O)C2)C3)c2ncnc(N)c12 (stereo not shown) [Example 90, 9-[1-(4-amino-3-methyl-1H-pyrazolo[3,4-d]pyrimidin-1-yl)ethyl]-7-chloro-4-[1-(methylsulfonyl)azetidin-3-yl]-2,3,4,5-tetrahydro-1,4-benzoxazepine-6-carbonitrile]"
12,≤ 100,"Cc1nn(C(C)c2cc(Cl)c(C#N)c3c2OCCN(C2CN(C(=O)NC(C)C)C2)C3)c2ncnc(N)c12 (stereo not shown) [Example 91, 3-[9-[1-(4-amino-3-methyl-1H-pyrazolo[3,4-d]pyrimidin-1-yl)ethyl]-7-chloro-6-cyano-2,3-dihydro-1,4-benzoxazepin-4(5H)-yl]-N-isopropylazetidine-1-carboxamide]"
13,≤ 100,"CCOC(=O)N1CC(N2CCOc3c(C(C)n4nc(C)c5c(N)ncnc54)cc(Cl)c(C#N)c3C2)C1 (stereo not shown) [Example 92, ethyl 3-[9-[1-(4-amino-3-methyl-1H-pyrazolo[3,4-d]pyrimidin-1-yl)ethyl]-7-chloro-6-cyano-2,3-dihydro-1,4-benzoxazepin-4(5H)-yl]azetidine-1-carboxylate]"

# Molecular target: PI3Kδ (p110δ/p85α) (Homo sapiens (Human), UniProt O00329)
# Assay: PI3Kδ Scintillation Proximity Assay (Example A3)
# Format: biochemical
# Source text: Example A3: PI3Kδ Scintillation Proximity Assay
# [γ-^33P]ATP (10 mCi/mL) was purchased from Perkin-Elmer (Waltham, Mass.). Lipid kinase substrate, D-myo-Phosphatidylinositol 4,5-bisphosphate (PtdIns(4,5)P2)D (+)-sn-1,2-di-O-octanoylglyceryl, 3-O-phospho linked (PIP2), CAS 204858-53-7, was purchased from Echelon Biosciences (Salt Lake City, Utah). PI3Kδ (p110δ/p85α) was purchased from Millipore (Bedford, Mass.). ATP, MgCl2, DTT, EDTA, MOPS and CHAPS were purchased from Sigma-Aldrich (St. Louis, Mo.). Wheat Germ Agglutinin (WGA) YSi SPA Scintillation Beads was purchased from GE healthcare life sciences (Piscataway, N.J.).
# The kinase reaction was conducted in polystyrene 384-well matrix white plate from Thermo Fisher Scientific in a final volume of 25 μL. Inhibitors were first diluted serially in DMSO and added to the plate wells before the addition of other reaction components. The final concentration of DMSO in the assay was 0.5%. The PI3K assays were carried out at room temperature in 20 mM MOPS, pH 6.7, 10 mM MgCl2, 5 mM DTT and CHAPS 0.03%. Reactions were initiated by the addition of ATP, the final reaction mixture consisted of 20 µM PIP2, 20 µM ATP, 0.2 μCi [γ-^33P]ATP, 4 nM PI3Kδ. Reactions were incubated for 210 min and terminated by the addition of 40 μL SPA beads suspended in quench buffer: 150 mM potassium phosphate pH 8.0, 20% glycerol. 25 mM EDTA, 400 µM ATP. The final concentration of SPA beads was 1.0 mg/mL. After the plate sealing, plates were shaken overnight at room temperature and centrifuged at 1800 rpm for 10 minutes, the radioactivity of the product was determined by scintillation counting on Topcount (Perkin-Elmer). IC50 determination was performed by fitting the curve of percent control activity versus the log of the inhibitor concentration using the GraphPad Prism 3.0 software. […] IC50 data for Examples 1-25 is presented in Table 3 for PI3Kδ as determined by the assay of Example A2 or A3 as indicated
# PI3Kδ (p110δ/p85α), sequence (O00329 whole entry): as the sequence (O00329 whole entry) above
# PI3Kδ (p110δ/p85α), sequence (P27986 whole entry partner): as the sequence (P27986 whole entry partner) above
row,IC50 [nM],Structure (SMILES)
1,100 to 500,"Cc1c(Cl)cc(C(C)n2nc(C)c3c(N)ncnc32)c2c1CN(C(=O)OC(C)(C)C)CCO2 (stereo not shown) [Example 1, tert-Butyl 9-[1-(4-amino-3-methyl-1H-pyrazolo[3,4-d]pyrimidin-1-yl)ethyl]-7-chloro-6-methyl-2,3-dihydro-1,4-benzoxazepine-4(5H)-carboxylate]"
2,≤ 100,"Cc1c(Cl)cc(C(C)n2nc(C)c3c(N)ncnc32)c2c1CNCCO2 (stereo not shown) [Example 2, 1-[1-(7-Chloro-6-methyl-2,3,4,5-tetrahydro-1,4-benzoxazepin-9-yl)ethyl]-3-methyl-1H-pyrazolo[3,4-d]pyrimidin-4-amine bis(trifluoroacetate)]"
3,≤ 100,"Cc1c(Cl)cc(C(C)n2nc(C)c3c(N)ncnc32)c2c1CN(C1CN(C(=O)OC(C)(C)C)C1)CCO2 (stereo not shown) [Example 3, tert-Butyl 3-[9-[1-(4-amino-3-methyl-1H-pyrazolo[3,4-d]pyrimidin-1-yl)ethyl]-7-chloro-6-methyl-2,3-dihydro-1,4-benzoxazepin-4(5H)-yl]azetidine-1-carboxylate]"
4,≤ 100,"CC(=O)N1CC(N2CCOc3c(C(C)n4nc(C)c5c(N)ncnc54)cc(Cl)c(C)c3C2)C1 (stereo not shown) [Example 4, 1-{1-[4-(1-Acetylazetidin-3-yl)-7-chloro-6-methyl-2,3,4,5-tetrahydro-1,4-benzoxazepin-9-yl]ethyl}-3-methyl-1H-pyrazolo[3,4-d]pyrimidin-4-amine]"
5,≤ 100,"Cc1c(Cl)cc(C(C)n2nc(C)c3c(N)ncnc32)c2c1CN(C1CCC1)CCO2 (stereo not shown) [Example 5, 1-[1-(7-Chloro-4-cyclobutyl-6-methyl-2,3,4,5-tetrahydro-1,4-benzoxazepin-9-yl)ethyl]-3-methyl-1H-pyrazolo[3,4-d]pyrimidin-4-amine bis(trifluoroacetate)]"
6,≤ 100,"Cc1c(Cl)cc(C(C)n2nc(C)c3c(N)ncnc32)c2c1CN(C1CCCC1)CCO2 (stereo not shown) [Example 6, 1-[1-(7-Chloro-4-cyclopentyl-6-methyl-2,3,4,5-tetrahydro-1,4-benzoxazepin-9-yl)ethyl]-3-methyl-1H-pyrazolo[3,4-d]pyrimidin-4-amine bis(trifluoroacetate)]"
7,≤ 100,"Cc1c(Cl)cc(C(C)n2nc(C)c3c(N)ncnc32)c2c1CN(C1CCCCC1)CCO2 (stereo not shown) [Example 7, 1-[1-(7-Chloro-4-cyclohexyl-6-methyl-2,3,4,5-tetrahydro-1,4-benzoxazepin-9-yl)ethyl]-3-methyl-1H-pyrazolo[3,4-d]pyrimidin-4-amine bis(trifluoroacetate)]"
8,≤ 100,"Cc1c(Cl)cc(C(C)n2nc(C)c3c(N)ncnc32)c2c1CN(C)CCO2 (stereo not shown) [Example 9, 1-[1-(7-Chloro-4,6-dimethyl-2,3,4,5-tetrahydro-1,4-benzoxazepin-9-yl)ethyl]-3-methyl-1H-pyrazolo[3,4-d]pyrimidin-4-amine bis(trifluoroacetate)]"

row,Structure (SMILES),IC50 [nM]
1,"COC1CCC(N2CCOc3c(C(C)n4nc(C)c5c(N)ncnc54)cc(Cl)c(C)c3C2)CC1 (stereo not shown) [Example 8, 1-{1-[7-Chloro-4-(4-methoxycyclohexyl)-6-methyl-2,3,4,5-tetrahydro-1,4-benzoxazepin-9-yl]ethyl}-3-methyl-1H-pyrazolo[3,4-d]pyrimidin-4-amine bis(trifluoroacetate)]",≤ 100

# — patent US9944646B2, “Bicyclic azaheterocyclobenzylamines as PI3K inhibitors” (Incyte Corporation, priority 2012, dated 2018)
